Assays:
Assay type in all cases: in vivo
[1] = system: BACHD mice; test: Behavioral analysis in BACHD mice; conditions: BACHD mice treated for six months vs untreated BACHD mice
Method: Huntington's disease. To determine whether Mdivi1 reduces excessive mitochondrial fragmentation and enhances mitochondrial function and synaptic activity in bacterial artificial chromosome transgenic Huntington's disease (BACHD) mice.
(§1) The inventors treated BACHD mice and non-transgenic wild-type mice with Mdivi-1 for six months. Behavioral analysis were performed using rotarod (motor coordination), open field (locomotor activity), Y-maze (working memory) and tail suspension (neurological phenotype) in both treated and untreated BACHD and non-transgenic wild-type (WT) mice. […] The inventors also completed studies on the cell and molecular biology aspects of mitochondria and mutant huntingtin experiments. And also completed experiments on mitochondrial morphology (number and length) dendritic spine density in Mdivi-1-treated and untreated BACHD and non-transgenic WT mice.

[2] = system: BACHD mice; test: Gene/protein levels, dendritic spines and mitochondrial morphology in BACHD mice
Method: as §1
Mdivi-1-treated BACHD mice had increased dendritic spines in striatal, cortical and hippocampal tissues of Mdivi-1-treated BACHD mice relative Mdivi-1-untreated BACHD mice. Mdivi-1-treated BACHD mice had increased mitochondrial length and reduced the size of mitochondrial size.

[3] = system: wild-type mice; test: Morris Water Maze, wild-type mice; conditions: 12-month-old WT mice, 3 weeks, vs control WT mice
Text: (§2) Impact of MitoQ in Wild-type and Transgenic Tau mice: The inventors investigated the protective effects of MitoQ and daily exercise in 12-month-old transgenic Tau (P301L strain) and age-matched wild-type mice. The purpose of this study was to assess the lifestyle factors (antioxidant-enriched diet) and physical exercise (Treadmill) effects on cognitive behavior and AD pathologies (Abeta, P-tau, mitochondrial and synaptic) in AD mice.
(§3) First, the inventors fed wild-type, Tau and APP/PS1 mice with (500 uM of MitoQ in drinking water) and physical exercise (30 minutes on Treadmill) for 3 weeks. The inventors used 12-month-old animals (n=7) per group for all treatments (WT-MitoQ, WT-Treadmill, WT-MitoQ+Treadmill), Tau (Tau-MitoQ, Tau-Treadmill,Tau-MitoQ+Treadmill) and APP/PS1 (APP/PS1-MitoQ, APP/PS1-Treadmill, APP/PS1-MitoQ+Treadmill). Age-matched control mice were used for all genotypes in these studies. After 3-weeks treatment, the cognitive behavior using Morris Water Maze test was assessed.
(§4) The inventors conducted 11 trials (4 training and 7 actual) for latency to find the platform for all groups of mice.

[4] = system: transgenic Tau (P301L strain) mice; test: Morris Water Maze, transgenic Tau mice; conditions: 12-month-old Tau mice, 3 weeks
Text: as §2, §3, §4

[5] = treated vs untreated BACHD mice

| SMILES | behavioral phenotype (rotarod, open field, Y-maze, tail suspension) [1] | dendritic spines ([2]; striatal, cortical and hippocampal tissues, treated vs untreated BACHD mice) | mitochondrial length ([2]; treated BACHD mice) | size of mitochondrial size ([2]; treated BACHD mice) | Mitochondrial biogenesis (PGC1a, Nrf1, Nrf2 and TFAM) genes [2, 5] | autophagy (LC3A, LC3B, ATG5, Beclin 1) genes [2, 5] | mRNA and protein levels of fission genes (Drp1 and Fis1) [2, 5] | mitochondrial fusion genes (Mfn1, Mfn2, and Opa1) [2, 5] | mitophagy (PINK1, TERT, BCL2, BNIP3L) genes [2, 5] | synaptic (synaptophysin, PSD95, DARPP32) genes [2, 5] | latency to find the platform ([3]; 500 uM in drinking water) | latency to find the platform ([3]; MitoQ+Treadmill (30 minutes)) | latency to reach platform ([4]; 500 uM in drinking water, vs MitoQ untreated Tau mice) | latency to reach platform ([4]; MitoQ+Treadmill, vs MitoQ+Treadmill untreated Tau mice) |
| --- | --- | --- | --- | --- | --- | --- | --- | --- | --- | --- | --- | --- | --- | --- |
| COc1cc(-n2c(S)nc3ccccc3c2=O)c(Cl)cc1Cl [Mdivi-1, 3-(2,4-Dichloro-5-methoxyphenyl)-2,3-dihydro-2-thioxo-4(1H)-quinazolinone, 3-(2,4-Dichloro-5-methoxyphenyl)-2-sulfanyl-4(3H)-quinazolinone] | significantly improved | increased | increased | reduced | increased | increased | significantly reduced | significantly increased | increased | increased |  |  |  |  |
| COC1=C(OC)C(=O)C(CCCCCCCCCC[P+](c2ccccc2)(c2ccccc2)c2ccccc2)=C(C)C1=O [MitoQ, Phosphonium, [10-(4,5-dimethoxy-2-methyl-3,6-dioxo-1,4-cyclohexadien-1-yl)decyl]triphenyl-, methanesulfonate] |  |  |  |  |  |  |  |  |  |  | did not show any significant difference | significantly faster | much quicker | significantly faster |
